ChEMBL document CHEMBL1201862, “PubChem BioAssay data set” (2004)
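Method: 48-hour compound exposure of cells in 96-well plates, five concentrations, linear interpolation of endpoints. The concentration for 50% growth inhibition is given as GI50.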 Active and inactive are the calls of the source. Rule as the data show it: active = GI50 up to about 1.1 µM and inactive = higher.

Experiments:
Experiment in all cases: DTP human tumour cell line panel, 48 h
UACC-62 = tested on: UACC-62
K562 = tested on: K562
OVCAR-8 = tested on: OVCAR-8
NCI-H226 = tested on: NCI-H226
UACC-257 = tested on: UACC-257
HOP-92 = tested on: HOP-92
HCT-116 = tested on: HCT-116
M14 = tested on: M14
SN12C = tested on: SN12C
Malme-3M = tested on: Malme-3M
EKVX = tested on: EKVX
Hs-578T = tested on: Hs-578T
NCI-H522 = tested on: NCI-H522
MDA-N = tested on: MDA-N
CAKI-1 = tested on: CAKI-1
SF-539 = tested on: SF-539
HOP-62 = tested on: HOP-62
OVCAR-5 = tested on: OVCAR-5
MDA-MB-231 = tested on: MDA-MB-231
OVCAR-4 = tested on: OVCAR-4

Compound | GI50 (UACC-62) | GI50 (K562) | GI50 (OVCAR-8) | GI50 (NCI-H226) | GI50 (UACC-257) | GI50 (HOP-92) | GI50 (HCT-116) | GI50 (M14) | GI50 (SN12C) | GI50 (Malme-3M) | GI50 (EKVX) | GI50 (Hs-578T) | GI50 (NCI-H522) | GI50 (MDA-N) | GI50 (CAKI-1) | GI50 (SF-539) | GI50 (HOP-62) | GI50 (OVCAR-5) | GI50 (MDA-MB-231) | GI50 (OVCAR-4)
C/C1=C\[C@H](C)C[C@H](C)OC(=O)[C@H](C)NC(=O)[C@@H](Cc2ccc(O)c(Br)c2)N(C)C(=O)[C@H](C)NC(=O)[C@@H](C)C1 | 0.146 µM (active) | 0.0836 µM (active) | 0.147 µM (active) | 0.0505 µM (active) | 0.0927 µM (active) | 0.0533 µM (active) | 0.00382 µM (active) | 0.118 µM (active) | 0.401 µM (active) | 0.0708 µM (active) | 0.0652 µM (active) | 0.094 µM (active) | 0.0149 µM (active) | 0.0982 µM (active) | 0.0149 µM (active) | 0.053 µM (active) | 0.0139 µM (active) | 10.7 µM (inactive) | 0.0211 µM (active) | 0.0631 µM (active)
Cc1ccc([S@+]([O-])c2occc2C=O)cc1 | 15.5 µM (inactive) | 1.85 µM (inactive) | 9.93 µM (inactive) | 19.4 µM (inactive) | 12.4 µM (inactive) | 3.27 µM (inactive) | 3.03 µM (inactive) | 6.9 µM (inactive) | 7.26 µM (inactive) | 3.7 µM (inactive) | 19.8 µM (inactive) | 16.4 µM (inactive) | 15.4 µM (inactive) | 4.44 µM (inactive) | 17.1 µM (inactive) | 11.4 µM (inactive) | 17.5 µM (inactive) | 19.2 µM (inactive) | 8.65 µM (inactive) | 9.98 µM (inactive)
CC(C)C(C/C=C1\CC(CO)(COC(=O)C(C)(C)C)OC1=O)C(C)C (stereo not given) | 15.2 µM (inactive) | 0.942 µM (active) | 14.8 µM (inactive) | 5.12 µM (inactive) | 16 µM (inactive) | 10.3 µM (inactive) | 10.5 µM (inactive) | 13.9 µM (inactive) | 5.69 µM (inactive) | 10.7 µM (inactive) | 11.1 µM (inactive) | 2.5 µM (inactive) | 14.1 µM (inactive) | 4.97 µM (inactive) | 8.73 µM (inactive) | 7.93 µM (inactive) | 3.11 µM (inactive) | 10.5 µM (inactive) | 5.24 µM (inactive) | 16.3 µM (inactive)
CN(CCNC(=O)c1cn(C)c2c1ccc1cc(Cl)c(Cl)cc12)CCNC(=O)c1cn(C)c2c1ccc1cc(Cl)c(Cl)cc12 | 1.95 µM (inactive) | 0.535 µM (active) | 1.79 µM (inactive) | 24.7 µM (inactive) | 2.41 µM (inactive) | 2.17 µM (inactive) | 1.94 µM (inactive) | 1.75 µM (inactive) | 1.74 µM (inactive) | 7.83 µM (inactive) | 2.7 µM (inactive) | 2.17 µM (inactive) | 1.97 µM (inactive) | 2.29 µM (inactive) | 3.84 µM (inactive) | 2.61 µM (inactive) | 1.79 µM (inactive) | 2.79 µM (inactive) | 1.75 µM (inactive) | 2.5 µM (inactive)
CN(C)Cc1cc(/N=N/c2ccccc2)cc(CN(C)C)c1O | > 100 µM (inactive) | 97.5 µM (inactive) | 57.1 µM (inactive) | > 100 µM (inactive) | > 100 µM (inactive) | 63.1 µM (inactive) | 53.6 µM (inactive) | > 100 µM (inactive) | > 100 µM (inactive) | > 100 µM (inactive) | > 100 µM (inactive) | > 100 µM (inactive) | > 100 µM (inactive) | > 100 µM (inactive) | > 100 µM (inactive) | > 100 µM (inactive) | > 100 µM (inactive) | > 100 µM (inactive) | 71 µM (inactive) | 35.8 µM (inactive)
O=C1/C(=C/c2ccc(Cl)cc2)CCC1CN1CCOCC1 (stereo not given) | 5.51 µM (inactive) | 1.86 µM (inactive) | 6.68 µM (inactive) | 20.6 µM (inactive) | 8.73 µM (inactive) | 3.96 µM (inactive) | 4.2 µM (inactive) | 5.48 µM (inactive) | 3.78 µM (inactive) | 6.52 µM (inactive) | 12.2 µM (inactive) | 4.31 µM (inactive) | 1.81 µM (inactive) | 6.46 µM (inactive) | 4.37 µM (inactive) | 10.6 µM (inactive) | 16.1 µM (inactive) | 23.2 µM (inactive) | 3.83 µM (inactive) | 17.5 µM (inactive)
CCOC(=O)c1cn2c(n1)sc1cc(F)ccc12 | > 100 µM (inactive) | > 100 µM (inactive) | > 100 µM (inactive) | > 100 µM (inactive) | > 100 µM (inactive) | > 100 µM (inactive) | 50.6 µM (inactive) | 64.4 µM (inactive) | > 100 µM (inactive) | > 100 µM (inactive) | > 100 µM (inactive) | 64.3 µM (inactive) | > 100 µM (inactive) | 19.4 µM (inactive) | > 100 µM (inactive) | 99.5 µM (inactive) | 29.5 µM (inactive) | 25.2 µM (inactive) | 92.7 µM (inactive) | > 100 µM (inactive)
